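A five-concentration, 48-hour dose response in 96-well plates underlies each endpoint, interpolated linearly between surrounding concentrations. TGI is the concentration that stops growth completely.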 Where only a bound is given, the exact number is not on record here.

The values that follow come from PubChem BioAssay (NCI).

Holding throughout (experiment): DTP human tumour cell line panel, 48 h
Assay [1] concerns ACHN renal.
In assay [2] the test system is HOP-62 NSCLC.
Assay [3] has as its system HOP-92 NSCLC.
Assay [4] deals with HS 578T breast.
Assay [5] has as its system HT29 colon.
Assay [6] relates to MDA-MB-435.
Assay [7] deals with MOLT-4 leukemia.
Assay [8] relates to NCI-H226 lung.
Assay [9] has as its system NCI-H23 lung.
The test system of assay [10] is RXF 393 renal.
The test system of assay [11] is SF-295 CNS.
Assay [12] concerns SK-OV-3 ovarian.
For assay [13], the system named is SNB-75 CNS.
In assay [14] the test system is SW-620 colon.
Assay [15] has as its system U251 CNS.

One may read the TGI as the concentration at which net growth stops. Take `CCCCCCCCOP(=O)(O)OP(=O)(O)OCC1OC(n2ccc(N)nc2=O)C(O)C1O` (configuration not stated): the TGI in assay [1], in assay [2], in assay [3], in assay [4], in assay [5] and in [6] was over 100 µM each time. In addition, the TGI in assay [7], in assay [8], in assay [9], in assay [10], in assay [11] and in assay [12] was over 100 µM throughout. The TGI in assay [13], in [14] and in [15] was over 100 µM in each case.
As for `O=C(OC1C#CCSCC#C/C=C\1)c1cnc2ccccc2n1` (configuration not stated), the TGI in assay [1], in assay [2], in assay [3], in [4], in assay [5] and in assay [6] was over 100 µM throughout. Further, the TGI in assay [8], in assay [9], in assay [10], in [11], in assay [12] and in assay [13] was over 100 µM each time. The TGI in assay [14] and in assay [15] was over 100 µM in each case.
As to `Nc1ccc(-c2nnc(-c3c(Cl)c(Cl)c(Cl)c(Cl)c3-c3nc4ccc(C(=O)c5ccccc5)cc4[nH]3)o2)cc1`, the concentration for total growth inhibition (TGI) in [1] was over 100 µM; in assay [2] it was 79.9 µM; in assay [3] it was over 100 µM; in assay [4] it was over 100 µM; in assay [5], 40.8 µM; in assay [6] it was 75.8 µM. The TGI was 66.7 µM in [7]; 41.2 µM in [8]; over 100 µM in assay [9]; 43.2 µM in assay [10]; 58.5 µM in assay [11]; 84.2 µM in assay [12]. Also, the TGI is 69.2 µM in assay [13], over 100 µM in assay [14] and 47.4 µM in assay [15].
On to `Oc1c(Nc2ccccc2)cc2c3c1N=NC=3CCN=2`, for which the TGI in assay [1] was over 100 µM; in [2], over 100 µM; in [3], over 100 µM; in assay [4] it was over 100 µM; in assay [5] it was over 100 µM; in assay [6] it was 31 µM. Further, the TGI is 87.3 µM in [7]; over 100 µM in assay [9]; over 100 µM in assay [10]; over 100 µM in assay [11]; over 100 µM in assay [12]; over 100 µM in [13]. Moreover, the TGI in [14] and in assay [15] was over 100 µM each time.
Turning to `O=C1NC(=S)NC1C(Cc1ccccc1)c1ccco1` (configuration not stated), the TGI in assay [1], in assay [3], in assay [4], in [5], in [6] and in assay [7] was over 100 µM throughout. Moreover, the TGI in assay [8], in assay [9], in assay [10], in assay [11], in [12] and in [13] was over 100 µM throughout. The TGI in assay [14] and in assay [15] was over 100 µM throughout.
With `Clc1ccc(-c2cn3c(nc4ccccc43)c(/C=C/c3cccs3)n2)cc1`, the TGI in assay [1], in assay [2], in assay [3], in assay [4], in assay [5] and in assay [6] was over 100 µM in each case. Also, the TGI in assay [8], in [9], in assay [10], in assay [12], in [13] and in [14] was over 100 µM throughout. The same molecule gave a TGI in [15] of over 100 µM.
For the molecule `CCN1CCC(O)(/C=C/c2cccc(C)c2)C(C(=O)/C=C/c2cccc(C)c2)C1` (configuration not stated), the TGI in [1] was 2.93 µM; in assay [3], 7.56 µM; in [4], 4.97 µM; in assay [5], 3.18 µM; in assay [6] it was 4.61 µM; in assay [7], over 21.5 µM. Besides, the TGI worked out at 5.89 µM in assay [8]; 4.95 µM in assay [9]; 3.57 µM in assay [10]; 4.51 µM in assay [11]; 11.4 µM in assay [12]; 7.69 µM in [13]. Further, the TGI was 7.38 µM in [14] and 3.31 µM in assay [15].
Take `CCOC(=O)C1C(c2ccccc2)C2(C#N)C(=N)OC1(C)C2(C#N)C#N` (configuration not stated): the TGI is 50.8 µM in assay [1]; 48.6 µM in assay [3]; over 100 µM in assay [4]; 29.4 µM in assay [5]; 51.6 µM in [6]; 56 µM in assay [7]. The TGI in assay [8] is over 100 µM; in assay [9], 37 µM; in [10], 35.5 µM; in assay [11], over 100 µM; in assay [12] it was over 100 µM; in assay [13], 34.7 µM. For the same molecule, the TGI in assay [14] and in assay [15] was over 100 µM throughout.
Regarding `Cc1cc(N(C)C)ccc1N=Nc1ccc2ncccc2c1`, the TGI in assay [1], in [3], in [4], in assay [5], in [6] and in assay [7] was over 100 µM throughout. In addition, the TGI in assay [8], in assay [9], in [10], in assay [11], in [12] and in [13] was over 100 µM each time. Besides, the TGI in [14] and in assay [15] was over 100 µM throughout.
